The source made the active and inactive calls. No cut-off for these calls is given here.
Tests used:
CCRF S-180 [1] = assay: Antiproliferative activity against mouse S180 cells assessed as cell viability after 48 hrs by MTT assay; type: functional, cell-based; settings: CCRF S-180, 48 h
Mus musculus [2] = assay: Antiinflammatory activity against xylene-induced male ICR mouse ear edema model assessed as plasma TNFalpha at 1 umol/kg, ip relative to NS; type: functional, organism-based
K562 = assay: Antiproliferative activity against human K562 cells assessed as cell viability after 48 hrs by MTT assay; type: functional, cell-based; settings: K562, 48 h
Mus musculus [3] = assay: Antiinflammatory activity in male ICR mouse assessed as xylene-induced ear edema at 1 umol/kg, ip relative to NS; type: functional, organism-based
HepG2 = assay: Antiproliferative activity against human HepG2 cells assessed as cell viability after 48 hrs by MTT assay; type: functional, cell-based; settings: HepG2, 48 h
[4] = Antiproliferative activity against human HL60 cells assessed as cell viability after 48 hrs by MTT assay; type: functional, cell-based; settings: HL-60, 48 h
HeLa = assay: Antiproliferative activity against human HeLa cells assessed as cell viability after 48 hrs by MTT assay; type: functional, cell-based
A549 = assay: Antiproliferative activity against human A549 cells assessed as cell viability after 48 hrs by MTT assay; type: functional, cell-based; settings: A549, 48 h
CCRF S-180 [5] = assay: Antitumor activity against mouse S180 cells allografted in male ICR mouse assessed as tumor growth inhibition treated orally ervery day for 7 days; type: functional
[6] = Antioxidant activity assessed as O2 free radical scavenging activity produced from dimethylpyridine-N-oxide by ESR assay; type: physicochemical
[7] = Antioxidant activity assessed as OH free radical scavenging activity produced from dimethylpyridine-N-oxide by ESR assay; type: physicochemical
CCRF S-180 [8] = assay: Antitumor activity against mouse S180 cells allografted in male ICR mouse assessed as tumor growth inhibition at 0.1 umol/kg, po treated ervery day for 7 days relative to NS control; type: functional, organism-based
[9] = Antiproliferative activity against human SH-SY5Y cells assessed as cell viability after 48 hrs by MTT assay; type: functional, cell-based
[10] = Antioxidant activity assessed as NO free radical scavenging activity produced from N-methyl-D-glucamine dithiocarbamate by ESR assay; type: physicochemical
Calf thymus DNA [11] = assay: Binding affinity to calf thymus DNA at 40 uM by fluoresce spectrum analysis; type: nucleic-acid assay; settings: Bos taurus
Calf thymus DNA [12] = assay: Binding affinity to calf thymus DNA at 40 uM by UV-spectrophotometric analysis; type: nucleic-acid assay; settings: Bos taurus
Mus musculus [13] = assay: Antiinflammatory activity against xylene-induced male ICR mouse ear edema model assessed as plasma IL-8 at 1 umol/kg, ip relative to NS; type: functional, organism-based
HT-29 = assay: Antiproliferative activity against human HT-29 cells assessed as cell viability after 48 hrs by MTT assay; type: functional, cell-based; settings: HT-29, 48 h

| SMILES | IC50 (CCRF S-180 [1]) | inhibition (Mus musculus [2]) | IC50 (K562) | inhibition (Mus musculus [3]) | IC50 (HepG2) | IC50 [4] | IC50 (HeLa) | IC50 (A549) | inhibition (CCRF S-180 [5]) | EC50 [6] | EC50 [7] | inhibition (CCRF S-180 [8]) | IC50 [9] | EC50 [10] | Activity (Calf thymus DNA [11]) | Activity (Calf thymus DNA [12]) | inhibition (Mus musculus [13]) | IC50 (HT-29) |
| --- | --- | --- | --- | --- | --- | --- | --- | --- | --- | --- | --- | --- | --- | --- | --- | --- | --- | --- |
| COc1cccc2c1C(=O)c1c(O)c3c(c(O)c1C2=O)C[C@@](O)(C(=O)CO)C[C@@H]3O[C@H]1C[C@H](N)[C@H](O)[C@H](C)O1 [DOXORUBICIN] | 9.25 µM | – | – | – | – | – | – | – | – | – | – | – | – | – | – | – | – | – |
| COC(=O)c1cc(-c2nc(C(=O)OCc3ccccc3)cc3c2[nH]c2ccccc23)ccc1O | 0.96 µM | Active | 960 nM | Active | 960 nM | 960 nM | 960 nM | 960 nM | Dose-dependent effect | 285 µM | 170 nM | Dose-dependent effect | 960 nM | 73 µM | Active | Active | Active | 960 nM |
